Experimental data reported in patent US12612407B2, “Imidazo[2,1-f][1,2,4]triazin-4-amine derivatives as TLR7 agonist” (BEIGENE, LTD., priority 2020, dated 2026).

Target: T1, human TLR7 (Homo sapiens, UniProt Q9NYK1)
T1 construct: host or cells: HEK293 (HEK-Blue hTLR7)
T1 sequence (Q9NYK1 27-1049): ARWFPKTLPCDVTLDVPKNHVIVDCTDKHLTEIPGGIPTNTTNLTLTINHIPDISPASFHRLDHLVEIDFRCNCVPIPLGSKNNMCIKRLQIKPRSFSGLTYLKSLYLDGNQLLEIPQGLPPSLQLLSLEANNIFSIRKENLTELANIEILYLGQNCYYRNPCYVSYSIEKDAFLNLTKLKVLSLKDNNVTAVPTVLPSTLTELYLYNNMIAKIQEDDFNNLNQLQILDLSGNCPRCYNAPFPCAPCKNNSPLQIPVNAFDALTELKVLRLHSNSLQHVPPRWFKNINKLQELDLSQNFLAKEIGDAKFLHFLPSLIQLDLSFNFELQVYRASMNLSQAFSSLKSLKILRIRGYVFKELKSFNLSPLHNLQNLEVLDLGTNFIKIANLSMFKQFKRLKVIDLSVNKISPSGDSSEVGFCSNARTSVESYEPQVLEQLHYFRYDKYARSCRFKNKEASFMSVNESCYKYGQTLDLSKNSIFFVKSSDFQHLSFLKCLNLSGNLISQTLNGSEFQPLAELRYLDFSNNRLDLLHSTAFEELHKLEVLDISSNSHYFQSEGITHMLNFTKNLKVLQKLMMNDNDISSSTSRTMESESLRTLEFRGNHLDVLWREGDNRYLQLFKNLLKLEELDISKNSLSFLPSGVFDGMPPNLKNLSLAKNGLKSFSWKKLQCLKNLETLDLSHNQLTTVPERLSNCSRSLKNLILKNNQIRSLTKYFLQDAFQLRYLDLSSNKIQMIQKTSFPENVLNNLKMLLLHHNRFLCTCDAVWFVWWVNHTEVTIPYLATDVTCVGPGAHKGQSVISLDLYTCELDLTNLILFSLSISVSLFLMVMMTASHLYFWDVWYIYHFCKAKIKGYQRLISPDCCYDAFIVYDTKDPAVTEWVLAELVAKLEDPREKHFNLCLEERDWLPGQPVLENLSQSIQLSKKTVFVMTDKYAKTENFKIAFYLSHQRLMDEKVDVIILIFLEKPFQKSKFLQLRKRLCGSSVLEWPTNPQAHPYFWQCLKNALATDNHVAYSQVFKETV
Assay: HEK293-Blue hTLR7 Reporter Assay (QUANTI-BLUE, SEAP readout)
Format: cell-based
Conditions: HEK-Blue-hTLR7 cells, 24 hrs treatment, Table 1, B1-B232
Method in brief: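 Compound titrations were applied for 24 h at 37° C to reporter HEK293 cells (4×10^4 per well) in which human TLR7 activation drives secreted alkaline phosphatase. Supernatants reacted with Quanti-blue 10-30 min, absorbance read at 620-655 nm, and EC50 derived by sigmoidal curve fitting.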

| Structure (SMILES) | EC50 |
| --- | --- |
| CCCCOc1nc(N)c2ncc(Cc3cnc(N4CCN[C@@H](C)C4)c(C)c3)n2n1 [Compound B132, (S)-2-butoxy-7-((5-methyl-6-(3-methylpiperazin-1-yl)pyridin-3-yl)methyl)imidazo[2,1-f][1,2,4]triazin-4-amine] | 48 nM |
| CCCC(C)Oc1nc(N)c2ncc(Cc3cnc(N4CCC(N(C)C)CC4)c(C)c3)n2n1 (centres unmarked) [Compound B133, 7-((6-(4-(dimethylamino)piperidin-1-yl)-5-methylpyridin-3-yl)methyl)-2-(pentan-2-yloxy)imidazo[2,1-f][1,2,4]triazin-4-amine] | 5.6 nM |
| CCCC(C)Oc1nc(N)c2ncc(Cc3cnc(N4CCC(CN(C)C)CC4)c(C)c3)n2n1 (centres unmarked) [Compound B134, 7-((6-(4-((dimethylamino)methyl)piperidin-1-yl)-5-methylpyridin-3-yl)methyl)-2-(pentan-2-yloxy)imidazo[2,1-f][1,2,4]triazin-4-amine] | 6 nM |
| CCCCNc1nc(N)c2ncc(Cc3cnc(N4CCC(N(C)C)CC4)c(C)c3)n2n1 [Compound B135, N2-butyl-7-((6-(4-(dimethylamino)piperidin-1-yl)-5-methylpyridin-3-yl)methyl)imidazo[2,1-f][1,2,4]triazine-2,4-diamine] | 22 nM |
| CCCCOc1nc(N)c2ncc(Cc3cnc(N4CC(N)C4)c(C)c3)n2n1 [Compound B136, 7-((6-(3-aminoazetidin-1-yl)-5-methylpyridin-3-yl)methyl)-2-butoxyimidazo[2,1-f][1,2,4]triazin-4-amine] | 4980 nM |
| CCCC(C)Nc1nc(N)c2ncc(Cc3cnc(N4CCC(CN(C)C)CC4)c(C)c3)n2n1 (centres unmarked) [Compound B137, 7-((6-(4-((dimethylamino)methyl)piperidin-1-yl)-5-methylpyridin-3-yl)methyl)-N2-(pentan-2-yl)imidazo[2,1-f][1,2,4]triazine-2,4-diamine] | 4.1 nM |
| CCCC(C)Nc1nc(N)c2ncc(Cc3cnc(N4CCC(N(C)C)CC4)c(C)c3)n2n1 (centres unmarked) [Compound B138, 7-((6-(4-(dimethylamino)piperidin-1-yl)-5-methylpyridin-3-yl)methyl)-N^2-(pentan-2-yl)imidazo[2,1-f][1,2,4]triazine-2,4-diamine] | 5.5 nM |
| CCCNc1nc(N)c2ncc(Cc3cnc(N4CCNCC4)c(C)c3)n2n1 [Compound B139, 7-((5-methyl-6-(piperazin-1-yl)pyridin-3-yl)methyl)-N2-propylimidazo[2,1-f][1,2,4]triazine-2,4-diamine] | 88 nM |
| CCCCc1nc(N)c2ncc(Cc3cnc(N4CCNCC4)c(C)c3)n2n1 [Compound B141, 2-butyl-7-((5-methyl-6-(piperazin-1-yl)pyridin-3-yl)methyl)imidazo[2,1-f][1,2,4]triazin-4-amine] | 154 nM |
| CCCCOc1nc(N)c2ncc(Cc3cnc(N4CCC(NC(=O)CN(C)C)CC4)c(C)c3)n2n1 [Compound B142, N-(1-(5-((4-amino-2-butoxyimidazo[2,1-f][1,2,4]triazin-7-yl)methyl)-3-methylpyridin-2-yl)piperidin-4-yl)-2-(dimethylamino)acetamidea] | 45 nM |
| CCCC(CCC)Oc1nc(N)c2ncc(Cc3cnc(N4CCNCC4)c(C)c3)n2n1 [Compound B143, 2-(heptan-4-yloxy)-7-((5-methyl-6-(piperazin-1-yl)pyridin-3-yl)methyl)imidazo[2,1-f][1,2,4]triazin-4-amine] | 7.8 nM |
| CCCCOc1nc(N)c2ncc(Cc3cnc(N4CCC(CN)CC4)c(C)c3)n2n1 [Compound B144, 7-((6-(4-(aminomethyl)piperidin-1-yl)-5-methylpyridin-3-yl)methyl)-2-butoxyimidazo[2,1-f][1,2,4]triazin-4-amine] | > 10000 nM |
| CC[C@H](C)Oc1nc(N)c2ncc(Cc3cnc(N4CCN(C(=O)CN(C)C)CC4)c(C)c3)n2n1 [Compound B145, (S)-1-(4-(5-((4-amino-2-(sec-butoxy)imidazo[2,1-f] [1,2,4]triazin-7-yl)methyl)-3-methylpyridin-2-yl)piperazin-1-yl)-2-(dimethylamino)ethan-1-one] | 8 nM |
| CC[C@H](C)Oc1nc(N)c2ncc(Cc3cnc(N4CCN(C(=O)CNC)CC4)c(C)c3)n2n1 [Compound B146, (S)-1-(4-(5-((4-amino-2-(sec-butoxy)imidazo[2,1-f][1,2,4]triazin-7-yl)methyl)-3-methylpyridin-2-yl)piperazin-1-yl)-2-(methylamino)ethan-1-one] | 10 nM |
| CCCC(C)Nc1nc(N)c2ncc(Cc3cnc(N4CCN(C(=O)CNC)CC4)c(C)c3)n2n1 (centres unmarked) [Compound B149, 1-(4-(5-((4-amino-2-(pentan-2-ylamino)imidazo[2,1-f][1,2,4]triazin-7-yl)methyl)-3-methylpyridin-2-yl)piperazin-1-yl)-2-(methylamino)ethan-1-one] | 6.3 nM |
| CCCC(C)Nc1nc(N)c2ncc(Cc3cnc(N4CCNCC4)c(C)c3)n2n1 (centres unmarked) [Compound B150, 7-((5-methyl-6-(piperazin-1-yl)pyridin-3-yl)methyl)-N2-(pentan-2-yl)imidazo[2,1-f][1,2,4]triazine-2,4-diamine] | 2.5 nM |
| CCCC(C)Nc1nc(N)c2ncc(Cc3cnc(N4CCN(C(=O)CN(C)C)CC4)c(C)c3)n2n1 (centres unmarked) [Compound B151, 1-(4-(5-((4-amino-2-(pentan-2-ylamino)imidazo[2,1-f][1,2,4]triazin-7-yl)methyl)-3-methylpyridin-2-yl)piperazin-1-yl)-2-(dimethylamino)ethan-1-one] | 3 nM |
| CC[C@@H](C)Oc1nc(N)c2ncc(Cc3cnc(N4CCNCC4)c(C)c3)n2n1 [Compound B152, (R)-2-(sec-butoxy)-7-((5-methyl-6-(piperazin-1-yl)pyridin-3-yl)methyl)imidazo[2,1-f][1,2,4]triazin-4-amine] | 56 nM |
| CC[C@@H](C)Oc1nc(N)c2ncc(Cc3cnc(N4CCN(C(=O)CN(C)C)CC4)c(C)c3)n2n1 [Compound B153, (R)-1-(4-(5-((4-amino-2-(sec-butoxy)imidazo[2,1-f][1,2,4]triazin-7-yl)methyl)-3-methylpyridin-2-yl)piperazin-1-yl)-2-(dimethylamino)ethan-1-one] | 49 nM |
| CCC[C@H](C)Oc1nc(N)c2ncc(Cc3cnc(N4CCN(C(=O)CNC)CC4)c(C)c3)n2n1 [Compound B154, (S)-1-(4-(5-((4-amino-2-(pentan-2-yloxy)imidazo[2,1-f][1,2,4]triazin-7-yl)methyl)-3-methylpyridin-2-yl)piperazin-1-yl)-2-(methylamino)ethan-1-one] | 1.6 nM |
| CCC(C)Oc1nc(N)c2ncc(Cc3cnc(N4CCN(C(=O)CN(C)C)CC4)c(C)c3)n2n1 (centres unmarked) [Compound B155, 1-(4-(5-((4-amino-2-(sec-butoxy)imidazo[2,1-f][1,2,4]triazin-7-yl)methyl)-3-methylpyridin-2-yl)piperazin-1-yl)-2-(dimethylamino)ethan-1-one] | 8.3 nM |
| CCC(C)Oc1nc(N)c2ncc(Cc3cnc(N4CCN(C(=O)CNC)CC4)c(C)c3)n2n1 (centres unmarked) [Compound B156, 1-(4-(5-((4-amino-2-(sec-butoxy)imidazo[2,1-f][1,2,4]triazin-7-yl)methyl)-3-methylpyridin-2-yl)piperazin-1-yl)-2-(methylamino)ethan-1-one] | 9.7 nM |
| CC[C@H](C)Oc1nc(N)c2ncc(Cc3cnc(N4CCNCC4)c(C)c3)n2n1 [Compound B158, (S)-2-(sec-butoxy)-7-((5-methyl-6-(piperazin-1-yl)pyridin-3-yl)methyl)imidazo[2,1-f][1,2,4]triazin-4-amine] | 6.5 nM |
| CC[C@@H](C)Oc1nc(N)c2ncc(Cc3cnc(N4CCN(C(=O)CNC)CC4)c(C)c3)n2n1 [Compound B159, (R)-1-(4-(5-((4-amino-2-(sec-butoxy)imidazo[2,1-f] [1,2,4]triazin-7-yl)methyl)-3-methylpyridin-2-yl)piperazin-1-yl)-2-(methylamino)ethan-1-one] | 48 nM |
| CCC[C@@H](C)Oc1nc(N)c2ncc(Cc3cnc(N4CCN(C(=O)CNC)CC4)c(C)c3)n2n1 [Compound B160, (R)-1-(4-(5-((4-amino-2-(pentan-2-yloxy)imidazo[2,1-f][1,2,4]triazin-7-yl)methyl)-3-methylpyridin-2-yl)piperazin-1-yl)-2-(methylamino)ethan-1-one] | 25 nM |
| CCCCOc1nc(N)c2ncc(Cc3cnc(N4CCC(NC)CC4)c(C)c3)n2n1 [Compound B161, 2-butoxy-7-((5-methyl-6-(4-(methylamino)piperidin-1-yl)pyridin-3-yl)methyl)imidazo[2,1-f][1,2,4]triazin-4-amine] | 11 nM |
